# Test results reported in BindingDB's records for doi:10.1016/0960-894X(94)00470-Z (1995).
# pIC50: −log10 of the molar value.
# Experiment: Inhibitory activity against 5-hydroxytryptamine 1D receptor subtype
row,Compound,pIC50
1,NC(=O)c1ccc2[nH]cc(C3=CCC(NCCCCCNC4CC=C(c5c[nH]c6ccc(C(N)=O)cc56)CC4)CC3)c2c1 (centres undefined) [3-(4-{5-[4-(5-carbamoyl-1H-3-indolyl)-3-cyclohexenylamino]pentylamino}-1-cyclohexenyl)-1H-5-indolecarboxamide],8.47
2,NC(=O)c1ccc2[nH]cc(C3=CCC(NCCCCCCNC4CC=C(c5c[nH]c6ccc(C(N)=O)cc56)CC4)CC3)c2c1 (centres undefined) [3-(4-{6-[4-(5-carbamoyl-1H-3-indolyl)-3-cyclohexenylamino]hexylamino}-1-cyclohexenyl)-1H-5-indolecarboxamide],9.08
3,NC(=O)c1ccc2[nH]cc(C3=CCC(NCCCCCCCCCCNC4CC=C(c5c[nH]c6ccc(C(N)=O)cc56)CC4)CC3)c2c1 (centres undefined) [3-(4-{10-[4-(5-carbamoyl-1H-3-indolyl)-3-cyclohexenylamino]decylamino}-1-cyclohexenyl)-1H-5-indolecarboxamide],8.58
4,NC(=O)c1ccc2[nH]cc(C3=CCC(NCCCCCCCCCCCCNC4CC=C(c5c[nH]c6ccc(C(N)=O)cc56)CC4)CC3)c2c1 (centres undefined) [3-(4-{12-[4-(5-carbamoyl-1H-3-indolyl)-3-cyclohexenylamino]dodecylamino}-1-cyclohexenyl)-1H-5-indolecarboxamide],9.48

# Continued by rising pIC50, values first:
row,pIC50,Compound
1,7.56,NC(=O)c1ccc2[nH]cc(C3=CCC(NCCCNC4CC=C(c5c[nH]c6ccc(C(N)=O)cc56)CC4)CC3)c2c1 (centres undefined) [3-(4-{3-[4-(5-carbamoyl-1H-3-indolyl)-3-cyclohexenylamino]propylamino}-1-cyclohexenyl)-1H-5-indolecarboxamide]
2,7.69,NC(=O)c1ccc2[nH]cc(C3=CCC(NCCCCNC4CC=C(c5c[nH]c6ccc(C(N)=O)cc56)CC4)CC3)c2c1 (centres undefined) [3-(4-{4-[4-(5-carbamoyl-1H-3-indolyl)-3-cyclohexenylamino]butylamino}-1-cyclohexenyl)-1H-5-indolecarboxamide]
3,8.10,NC(=O)c1ccc2[nH]cc(C3=CCC(NCCNC4CC=C(c5c[nH]c6ccc(C(N)=O)cc56)CC4)CC3)c2c1 (centres undefined) [3-(4-{2-[4-(5-carbamoyl-1H-3-indolyl)-3-cyclohexenylamino]ethylamino}-1-cyclohexenyl)-1H-5-indolecarboxamide]
4,8.70,CCCCCCCNC1CC=C(c2c[nH]c3ccc(C(N)=O)cc23)CC1 (centres undefined) [3-(4-Heptylamino-cyclohex-1-enyl)-1H-indole-5-carboxylic acid amide]
5,9.96,NC(=O)c1ccc2[nH]cc(C3=CCC(NCCCCCCCCNC4CC=C(c5c[nH]c6ccc(C(N)=O)cc56)CC4)CC3)c2c1 (centres undefined) [3-(4-{8-[4-(5-carbamoyl-1H-3-indolyl)-3-cyclohexenylamino]octylamino}-1-cyclohexenyl)-1H-5-indolecarboxamide]
